Data on seven compounds can be found in article PMC6969166, “The molecular basis of pyrazinamide activity on Mycobacterium tuberculosis PanD” (Nature Communications, 2020).

Assay [1] deals with T1, Mtb PanD (Mycobacterium tuberculosis, UniProt P9WIL3).
T1 construct: The active protein consists of a β chain (Met1-Gly24) and an α chain (Pyr25 to ILE115); we observed the processed active enzyme after cleavage between Gly24 and Ser25; inferred from the pET21c(+) vector and HisTrap purification); made in house; host or cells: Escherichia coli BL21(DE3)
T1 sequence (P9WIL3 1-24): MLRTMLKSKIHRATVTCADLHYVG
T1 sequence (P9WIL3 25-139): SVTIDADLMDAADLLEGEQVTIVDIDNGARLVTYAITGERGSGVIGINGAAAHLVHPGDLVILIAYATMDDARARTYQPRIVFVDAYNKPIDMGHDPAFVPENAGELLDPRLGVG
Put plainly: biochemical. It is filed as biochemical. The note with it: for remaining activity at 312.5 µM / remaining activity at 625 µM / remaining activity at 1250 µM / remaining activity at 2500 µM / remaining activity at 5000 µM / remaining activity at 10000 µM / remaining activity at 20000 µM: read-out: Fractional Activity.

In assay [2] the target is T1, Mtb PanD. Put plainly: Isothermal titration calorimetry, wild type. It is filed as binding. To be noted: for ΔH / ΔS: mean. The procedure:
ITC experiments were performed using a MicroCal iTC200 (GE). Both protein and ligands were in a buffer of 100 mM Tris, pH 7.5. The protein concentration in the cell was 0.5 mM, and the ligand concentration was 20 mM. The titration was performed at 20 °C. The data were analyzed with the Origin 7.0 software and fitted with a single-site binding model.
For orientation: In ITC the heat of successive injections is recorded.

Another assay relates to Mtb cultures. The note with it: cited from earlier work.
Another assay deals with PanD. On the set-up: method as in PMID 23029336. To be noted: cited from earlier work.

Several values for one entry are separate records, joined by “and”; a condition that tells them apart may be missing. Equal entries are not always repeated. Entries after “also recorded” stand apart in the source; their conditions may differ. Where two headings read alike, the source gives them in different places.

`O=C(O)c1cnc(Cl)cn1` [5-Cl-POA]: at Mtb PanD [1], the “inhibition of Mtb PanD” value is given as “no inhibition”. For the same compound, the remaining activity at 312.5 µM on Mtb PanD [1] (compound conc 0.3125 mM) is 92.8%. In addition, the remaining activity at 625 µM on Mtb PanD [1] (compound conc 0.625 mM) came to 89.8%. In addition, the remaining activity at 1250 µM at Mtb PanD [1] (compound conc 1.25 mM) turned out to be 80.2%. Further, on Mtb PanD [1] (compound conc 2.5 mM), the remaining activity at 2500 µM is 67.7%. Further, the remaining activity at 5000 µM at Mtb PanD [1] (compound conc 5 mM) stood at 52.9%. The remaining activity at 10000 µM at Mtb PanD [1] (compound conc 10 mM) amounted to 51.6%. Further, the remaining activity at 20000 µM on Mtb PanD [1] (compound conc 20 mM) was 44.3%.
Broadly, the Ki is the dissociation constant of the complex between target and ligand, obtained from inhibition or displacement. For orientation: Kd means the concentration at which binding is half-saturated. Read a high Kd as weaker binding. For `O=C(O)c1cncc(Cl)n1` [6-Cl-POA, 6-chloropyrazinoic acid], at Mtb PanD [1], the Ki came to 1000 µM, the “inhibition of Mtb PanD” value is “inhibitor of PanD” and the mode of inhibition result was “competitive”. Besides, the remaining activity at 312.5 µM on Mtb PanD [1] (compound conc 0.3125 mM) stood at 81.8%. In addition, on Mtb PanD [1] (compound conc 0.625 mM), the remaining activity at 625 µM is 69.3%. Besides, the remaining activity at 1250 µM at Mtb PanD [1] (compound conc 1.25 mM) turned out to be 51.7%. Also, at Mtb PanD [1] (compound conc 2.5 mM), the remaining activity at 2500 µM was 35%. Besides, the remaining activity at 5000 µM on Mtb PanD [1] (compound conc 5 mM) is 22.9%. Moreover, the remaining activity at 10000 µM on Mtb PanD [1] (compound conc 10 mM) was found to be 19.8%. Also, the remaining activity at 20000 µM at Mtb PanD [1] (compound conc 20 mM) turned out to be 8.91%. For the same compound, on Mtb PanD [2] (ITC, 20 °C, 100 mM Tris pH 7.5, single-site model, mean of separate experiments), binding was put at a Kd of 1090 µM. Also, on Mtb PanD [2] (ITC, 20 °C, 100 mM Tris pH 7.5), the ΔH is reported as −3300 (100) cal mol^−1 and the ΔS is listed as 2.2 (0.5) cal mol^−1 deg^−1. On Mtb PanD [2] (ITC, wt, single experiments), the Kd was 1090 µM and 1140 µM and 1050 µM; the “ΔS (cal/mol /deg)” value is 2.27 cal/mol /deg and 1.7 cal/mol /deg and 2.71 cal/mol /deg.
Consider `O=C(O)c1cccnc1` [NA, nicotinic acid], for which, on Mtb PanD [1], the “inhibition of Mtb PanD” value is on record as “lack of inhibitory activity; also recorded: None of these compounds inhibited”, the remaining activity at 312.5 µM came out at 101%, the remaining activity at 625 µM came to 98.1% and the remaining activity at 1250 µM is 96.6%. Also, on Mtb PanD [1], the remaining activity at 2500 µM came out at 90.2%, the remaining activity at 5000 µM stood at 87.2%, the remaining activity at 10000 µM was 82.2% and the remaining activity at 20000 µM came to 61.4%. Also, the “binding in ITC” value at Mtb PanD [2] (100 mM Tris pH 7.5) is reported as “no binding”.
For `O=C(O)c1cnccn1` [POA, pyrazinoic acid], the mode of inhibition result at Mtb PanD [1] was “competitive with aspartate”. Also, on Mtb PanD [1] (compound conc 0.3125 mM), the remaining activity at 312.5 µM is 81.2%. For the same compound, the remaining activity at 625 µM on Mtb PanD [1] (compound conc 0.625 mM) is 66.4%. For the same compound, at Mtb PanD [1] (compound conc 1.25 mM), the remaining activity at 1250 µM turned out to be 52.9%. Also, the remaining activity at 2500 µM at Mtb PanD [1] (compound conc 2.5 mM) was 34.8%. Further, the remaining activity at 5000 µM on Mtb PanD [1] (compound conc 5 mM) turned out to be 21.6%. Moreover, the remaining activity at 10000 µM on Mtb PanD [1] (compound conc 10 mM) amounted to 13.4%. In addition, the remaining activity at 20000 µM at Mtb PanD [1] (compound conc 20 mM) was found to be 7.44%. Also, on Mtb PanD [2] (ITC, 20 °C, 100 mM Tris pH 7.5), the ΔH is on record as -4200 (200) cal mol^−1 and the ΔS is reported as 0.1 (0.7) cal mol^−1 deg^−1.
`NC(=O)c1cnccn1` [PZA, pyrazinamide]: the “inhibition of Mtb PanD” value on Mtb PanD [1] is listed as “lack of inhibitory activity; also recorded: None of these compounds inhibited”. On Mtb PanD [1] (compound conc 0.3125 mM), the remaining activity at 312.5 µM stood at 104%. Moreover, the remaining activity at 625 µM at Mtb PanD [1] (compound conc 0.625 mM) worked out at 105%. Further, the remaining activity at 1250 µM at Mtb PanD [1] (compound conc 1.25 mM) stood at 101%. In addition, the remaining activity at 2500 µM at Mtb PanD [1] (compound conc 2.5 mM) is 104%. At Mtb PanD [1] (compound conc 5 mM), the remaining activity at 5000 µM was found to be 101%. Also, the remaining activity at 10000 µM at Mtb PanD [1] (compound conc 10 mM) was 98.7%. In addition, the remaining activity at 20000 µM at Mtb PanD [1] (compound conc 20 mM) worked out at 91.5%. Besides, the minimal inhibitory concentration in the assay on Mtb cultures (mildly acidic (<pH6), ref 2 (peer review file list)) is 0.4-1.6 mM and 50 – 200 µg/ml. For the same compound, the minimum inhibitory concentrations in the assay with Mtb cultures (mildly acidic pH) was 400 to 1600 µM. The “activity against Mtb cultures” value in the assay on Mtb cultures (normal media) is reported as “not active”.
As a reminder, the Km is the concentration of substrate that gives half-maximal velocity. As to `N[C@@H](CC(=O)O)C(=O)O` [aspartate, L-aspartate], the Km on Mtb PanD [1] came to 1080 µM.
For the compound `O=C(O)C(O)C(O)C(=O)O` (stereo not shown) [tartrate], the “inhibitor of the enzyme” value in the assay on PanD is listed as “known inhibitor”.
